The text below walks through data of ChEMBL document CHEMBL3272216 (J Med Chem, 1977).

A short description of data set [1]: Retention time of the compound in 0.01 M NH4OAc buffer at pH 4.5 by HPLC analysis. The class given is physicochemical.
The species entered for data set [2] is Rattus norvegicus. Description: Binding affinity to neurotensin receptor in rat mast cells at 1 ng to 10 ug after 15 mins relative to neurotensin. The class given is cell-based.
The test system of data set [3] is Rattus norvegicus. Description: Induction of hypothermia in cold-exposed Sprague-Dawley rat compound administered intracisternally measured 60 mins post dose relative to neurotensin. The class given is functional.

The structures appear in SMILES notation. Where a SMILES comes first, the peptide text is derived from it. Bridges are numbered along the chain shown (N, C = ends). [ ]: non-standard residue; d: D form. pGlu = O=C1CC[C@@H](C(=O)O)N1 A value given as a limit tells only on which side of the number the result lay.

`CC[C@H](C)[C@H](NC(=O)[C@H](Cc1ccc(O)cc1)NC(=O)[C@@H]1CCCN1C(=O)[C@H](CCCNC(=N)N)NC(=O)[C@@H](N)CCCNC(=N)N)C(=O)N[C@@H](CC(C)C)C(=O)O` [listing 1 of 2 here] gave a Retention_time in data set [1] of 8.2 min.

`CC[C@H](C)[C@@H]1NC(=O)[C@H](Cc2ccc(O)cc2)NC(=O)[C@@H]2CCCN2C(=O)[C@H](CCCNC(=N)N)NC(=O)[C@H](CCCNC(=N)N)NC(=O)[C@@H]2CCCN2C(=O)[C@H](CCCCN)NC(=O)[C@H](CC(N)=O)NC(=O)[C@H](CCC(=O)O)NC(=O)[C@H](Cc2ccc(O)cc2)NC(=O)[C@@H](NC(=O)[C@@H]2CCC(=O)N2)CSSC[C@@H](C(=O)O)NC1=O` ([pGlu]CYENKPRRPYIC-OH; disulfide 2-13) returned a Retention_time in data set [1] of 5.3 min. In addition, the Ratio stood at 3.4 in the data set filed under Rattus norvegicus [2] and 100 with Rattus norvegicus [3].

As for `CC[C@H](C)[C@H](NC(=O)[C@H](Cc1ccc(O)cc1)NC(=O)[C@@H]1CCCN1C(=O)[C@@H](N)CCCNC(=N)N)C(=O)N[C@@H](CC(C)C)C(=O)O`, in data set [1], the Retention_time is given as 10.4 min.

`CC[C@H](C)[C@H](NC(=O)[C@@H](CC(C)C)NC(=O)[C@@H]1CCCN1C(=O)[C@H](CCCNC(=N)N)NC(=O)[C@H](CCCNC(=N)N)NC(=O)[C@@H]1CCCN1C(=O)[C@H](CCCCN)NC(=O)[C@H](CC(N)=O)NC(=O)[C@H](CCC(=O)O)NC(=O)[C@H](Cc1ccc(O)cc1)NC(=O)[C@H](CC(C)C)NC(=O)[C@@H]1CCC(=O)N1)C(=O)N[C@@H](CC(C)C)C(=O)O` registered a Retention_time in data set [1] of 5.2 min. The Ratio in the data set with Rattus norvegicus [3] turned out to be 30.

Turning to `CC[C@H](C)[C@H](NC(=O)[C@H](Cc1ccccc1)NC(=O)[C@@H]1CCCN1C(=O)[C@H](CCCN=C(N)N)NC(=O)[C@H](CCCN=C(N)N)NC(=O)[C@@H]1CCCN1C(=O)[C@H](CCCCN)NC(=O)[C@H](CC(N)=O)NC(=O)[C@H](CCC(=O)O)NC(=O)[C@H](Cc1ccc(O)cc1)NC(=O)[C@H](CC(C)C)NC(=O)[C@@H]1CCC(=O)N1)C(=O)N[C@@H](CC(C)C)C(=O)O`, in data set [1], the Retention_time is 9.7 min. Also, the Ratio in the data set listed under Rattus norvegicus [2] and in the data set with Rattus norvegicus [3] was 100 each time.

As to `CC[C@H](C)[C@H](NC(=O)[C@H](Cc1ccc(O)cc1)NC(=O)[C@@H]1CCCN1C(=O)[C@@H](N)CCCN=C(N)N)C(=O)N[C@@H](CC(C)C)C(=O)O`, the Ratio amounted to 76 in the data set listed under Rattus norvegicus [2] and 20 with Rattus norvegicus [3].

In the case of `CC[C@H](C)[C@H](NC(=O)[C@H](Cc1ccc(O)cc1)NC(=O)[C@@H]1CCCN1C(=O)[C@H](CCCNC(=N)N)NC(=O)[C@@H](N)CCCNC(=N)N)C(=O)N[C@@H](CC(C)C)C(=O)O` [listing 2 of 2 here], in the data set with Rattus norvegicus [3], the Ratio is 25.

In data set [1], `CC[C@H](C)[C@H](NC(=O)[C@@H](CCCCN)NC(=O)[C@@H]1CCCN1C(=O)[C@H](CCCNC(=N)N)NC(=O)[C@H](CCCNC(=N)N)NC(=O)[C@@H]1CCCN1C(=O)[C@H](CCCCN)NC(=O)[C@H](CC(N)=O)NC(=O)[C@H](CCC(=O)O)NC(=O)[C@H](Cc1ccc(O)cc1)NC(=O)[C@H](CC(C)C)NC(=O)[C@@H]1CCC(=O)N1)C(=O)N[C@@H](CC(C)C)C(=O)O` gave a Retention_time of 6.4 min. The Ratio in the data set listed under Rattus norvegicus [2] is 3.4; in the data set on Rattus norvegicus [3] it was below 1.

In data set [1], `CC[C@H](C)[C@H](NC(=O)[C@@H](Cc1ccccc1)NC(=O)[C@@H]1CCCN1C(=O)[C@H](CCCN=C(N)N)NC(=O)[C@H](CCCN=C(N)N)NC(=O)[C@@H]1CCCN1C(=O)[C@H](CCCCN)NC(=O)[C@H](CC(N)=O)NC(=O)[C@H](CCC(=O)O)NC(=O)[C@H](Cc1ccc(O)cc1)NC(=O)[C@H](CC(C)C)NC(=O)[C@@H]1CCC(=O)N1)C(=O)N[C@@H](CC(C)C)C(=O)O` had a Retention_time of 5.3 min. The results for the Ratio in the data set listed under Rattus norvegicus [2] and with Rattus norvegicus [3] were 0.64 and 1000, respectively.

On to `CC[C@@H](C)[C@H](NC(=O)[C@H](Cc1ccc(O)cc1)NC(=O)[C@@H]1CCCN1C(=O)[C@H](CCCNC(=N)N)NC(=O)[C@@H](N)CCCNC(=N)N)C(=O)N[C@@H](CC(C)C)C(=O)O`, for which, in the data set filed under Rattus norvegicus [2], the Ratio came to 67.

For the molecule `CC[C@H](C)[C@H](NC(=O)[C@H](Cc1ccc(O)cc1)NC(=O)[C@@H]1CCCN1C(=O)[C@H](CCCNC(=N)N)NC(=O)[C@H](CCCNC(=N)N)NC(=O)[C@@H]1CCCN1C(=O)[C@H](CCCCN)NC(=O)[C@H](CC(N)=O)NC(=O)[C@H](CCC(=O)O)NC(=O)[C@H](Cc1ccccc1)NC(=O)[C@H](CC(C)C)NC(=O)[C@@H]1CCC(=O)N1)C(=O)N[C@@H](CC(C)C)C(=O)O`, in data set [1], the Retention_time is 4.9 min. Also, the Ratio worked out at 102 in the data set listed under Rattus norvegicus [2] and 100 in the data set with Rattus norvegicus [3].
